Results published in patent publication US20240246964A1 (Arbutus Biopharma Corporation, priority 2021, published 2024).

Experiments:
[1] = biological target: human PD-L1 (Homo sapiens (Human), UniProt Q9NZQ7); assay: T cell activation luciferase reporter cell culture system (T Cell Activation Assay); format: cell-based; settings: luciferase reporter assay; PD-L1 aAPC/CHO-K1 cells with PD-1 effector Jurkat T cells
[2] = biological target: PD-L1 His protein / PD-1 Fc protein (Homo sapiens (Human), UniProt Q9NZQ7); assay: HTRF Assay (PD-1/PD-L1 interaction); format: binding; settings: PD-L1 His 6 nM, PD-1 Fc 6 nM
PD-L1 His protein / PD-1 Fc protein, sequence (Q9NZQ7 19-238): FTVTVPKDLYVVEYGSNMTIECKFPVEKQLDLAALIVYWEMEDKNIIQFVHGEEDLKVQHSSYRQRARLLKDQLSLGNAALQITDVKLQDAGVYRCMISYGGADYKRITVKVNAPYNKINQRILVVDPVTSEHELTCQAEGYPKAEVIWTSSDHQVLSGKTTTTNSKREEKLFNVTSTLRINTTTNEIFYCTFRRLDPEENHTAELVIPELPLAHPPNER

human PD-L1, sequence (Q9NZQ7 19-290): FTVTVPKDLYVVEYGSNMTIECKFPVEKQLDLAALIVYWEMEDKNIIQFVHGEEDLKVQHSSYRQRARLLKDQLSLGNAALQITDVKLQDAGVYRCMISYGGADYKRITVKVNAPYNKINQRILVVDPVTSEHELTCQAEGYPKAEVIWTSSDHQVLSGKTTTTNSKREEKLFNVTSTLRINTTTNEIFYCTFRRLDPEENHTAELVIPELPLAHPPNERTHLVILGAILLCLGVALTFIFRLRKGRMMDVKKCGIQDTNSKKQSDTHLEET

Compound	EC50 [1] [nM]	IC50 [2] [nM]
COc1cc(-c2ncnc(-c3cccc(NC(=O)c4cn(C)c(=O)n(C)c4=O)c3Cl)c2Cl)ccc1CNC[C@H](C)O [Compound 746, (S)—N-(2-Chloro-3-(5-chloro-6-(4-(((2-hydroxypropyl)amino)methyl)-3-methoxyphenyl)pyrimidin-4-yl)phenyl)-1,3-dimethyl-2,4-dioxo-1,2,3,4-tetrahydropyrimidine-5-carboxamide]	2080	1.29
CNCc1ccc(-c2cccc(-c3ccnc(-c4ccc(CN5CC6(CC(C(=O)O)C6)C5)c(OC)c4)c3Cl)c2Cl)nc1OC [Compound 227, 2-(4-(3-chloro-4-(2-chloro-3-(6-methoxy-5-((methylamino)methyl)pyridin-2-yl)phenyl)pyridin-2-yl)-2-methoxybenzyl)-2-azaspiro[3.3]heptane-6-carboxylic acid]	31.3	5.25
COc1nc(-c2cccc(-c3ccnc(-c4ccc5c(CNC[C@@H]6CCC(=O)N6)nn(C)c5c4)c3Cl)c2Cl)ccc1CNC[C@@H]1CCC(=O)N1 [Compound 183, (S)-5-((((6-(2-chloro-3-(3-chloro-2-(1-methyl-3-(((((S)-5-oxopyrrolidin-2-yl)methyl)amino)methyl)-1H-indazol-6-yl)pyridine-4-yl)phenyl)-2-methoxypyridin-3-yl)methyl)amino)methyl)pyridine1335ne-2-one]	44.9	2.95
COc1nc(-c2cccc(-c3ccnc(-c4ccc5c(CNC6CCOCC6)cn(C)c5c4)c3Cl)c2Cl)ccc1CNC[C@@H]1CCC(=O)N1 [Compound 42, (S)-5-((((6-(2-chloro-3-(3-chloro-2-(1-methyl-3-(((tetrahydro-2H-pyran-4-yl)amino)methyl)-1H-indol-6-yl)pyridin-4-yl)phenyl)-2-methoxypyridin-3-yl)methyl)amino)methyl)pyrrolidin-2-one]	88.6	0.1
COc1cc(-c2nccc(-c3cccc(-c4ccc(CNC5CCN(C(C)=O)CC5)c(OC)n4)c3Cl)c2Cl)ccc1CN[C@H](CO)CC(=O)O [Example 342, (S)-3-((4-(4-(3-(5-(((1-Acetylpiperidin-4-yl)amino)methyl)-6-methoxypyridin-2-yl)-2-chlorophenyl)-3-chloropyridin-2-yl)-2-methoxybenzyl)amino)-4-hydroxybutanoic acid]	339	0.08
COc1cc(-c2nccc(-c3cccc(-c4ccc(CNC5CCOCC5)c(OC)n4)c3F)c2F)ccc1CNC1CCOCC1 [Example 452, N-((6-(2-Fluoro-3-(3-fluoro-2-(3-methoxy-4-(((tetrahydro-2H-pyran-4-yl)amino)methyl)phenyl)pyridin-4-yl)phenyl)-2-methoxypyridin-3-yl)methyl)tetrahydro-2H-pyran-4-amine]	≥ 10000	22.6
COc1nc(-c2cccc(-c3ccnc(-c4ccc5c(CNC6CCC(F)(F)CC6)cn(C)c5c4)c3Cl)c2Cl)ccc1CNC[C@@H]1CCC(=O)N1 [Compound 73, (S)-5-((((6-(2-chloro-3-(3-chloro-2-(3-(((4,4-difluorocyclohexyl)amino)methyl)-1-methyl-1H-indol-6-yl)pyridin-4-yl)phenyl)-2-methoxypyridin-3-yl)methyl)amino)methyl)pyrrolidin-2-one]	184	0.9
COc1cc(-c2nccc(-c3cccc(-c4ccc(CNC5CCN(C(C)=O)CC5)c(OC)n4)c3Cl)c2Cl)cc(F)c1CNC1CCN(C(C)=O)CC1 [Example 285, 1-(4-(((6-(3-(2-(4-(((1-Acetylpiperidin-4-yl)amino)methyl)-3-fluoro-5-methoxyphenyl)-3-chloropyridin-4-yl)-2-chlorophenyl)-2-methoxypyridin-3-yl)methyl)amino)piperidin-1-yl)ethan-1-one]	14.2	0.716
CNCc1ccc(-c2cccc(-c3ccnc(-c4ccc5c(CNC)cn(C)c5c4)c3Cl)c2Cl)nc1OC [Example 276, 1-(6-(2-Chloro-3-(3-chloro-2-(1-methyl-3-((methylamino)methyl)-1H-indol-6-yl)pyridin-4-yl)phenyl)-2-methoxypyridin-3-yl)-N-methylmethanamine]	≥ 10000	1.04
COc1nc(-c2cccc(-c3ccnc(-c4cc(OC)c5nc(CN6CC7(C6)CN(C(C)=O)C7)cn5c4)c3Cl)c2Cl)ccc1CNC[C@@H]1CCC(=O)N1 [Example 319, (S)-5-((((6-(3-(2-(2-((6-Acetyl-2,6-diazaspiro[3.3]heptan-2-yl)methyl)-8-methoxyimidazo[1,2-a]pyridin-6-yl)-3-chloropyridin-4-yl)-2-chlorophenyl)-2-methoxypyridin-3-yl)methyl)amino)methyl)pyrrolidin-2-one]	38.3	0.767
COc1cc(-c2nccc(-c3nccc(-c4ccc(CN5CC6(CNC(=O)C6)C5)c(OC)n4)c3Cl)c2Cl)ccc1CN1CC2(CNC(=O)C2)C1 [Example 669, 2-(4-(3′,3″-Dichloro-6-methoxy-5-((7-oxo-2,6-diazaspiro[3.4]octan-2-yl)methyl)-[2,4′:2′,4″-terpyridin]-2″-yl)-2-methoxybenzyl)-2,6-diazaspiro[3.4]octan-7-one]	296	0.34
COc1cc(-c2nccc(-c3cccc(-c4ccc5c(CN(C)CCO)cn(C)c5n4)c3Cl)c2Cl)ccc1CNC[C@@H]1CCC(=O)N1 [Compound 101, (S)-5-(((4-(3-chloro-4-(2-chloro-3-(3-(((2-hydroxyethyl)(methyl)amino)methyl)-1-methyl-1H-pyrrolo[2,3-b]pyridin-6-yl)phenyl)pyridin-2-yl)-2-methoxybenzyl)amino)methyl)pyrrolidin-2-one]	31	0.5
2-(4-(3-Chloro-4-(2-chloro-3-(5-methoxy-6-((7-oxo-2,6-diazaspiro[3.4]octan-2-yl)methyl)pyridin-3-yl)phenyl)pyridin-2-yl)-2-methoxybenzyl)-2,6-diazaspiro[3.4]octan-7-one [Example 566]	341	0.93
COc1cc(-c2nccc(-c3cccc(-c4ccc(CN5CCC(C(C)=O)CC5)c(OC)n4)c3Cl)c2Cl)ccc1CN1CCC(C(C)=O)CC1 [Example 536, 1-(1-((6-(3-(2-(4-((4-Acetylpiperidin-1-yl)methyl)-3-methoxyphenyl)-3-chloropyridin-4-yl)-2-chlorophenyl)-2-methoxypyridin-3-yl)methyl)piperidin-4-yl)ethan-1-one]	≥ 10000	6.7
COc1nc(-c2cccc(-c3ccnc(-c4ccc5c(c4)CN(CCNC[C@@H]4CCC(=O)N4)C5=O)c3Cl)c2Cl)ccc1CNC[C@H](C)O [Compound 142, 5-(3-chloro-4-(2-chloro-3-(5-((((S)-2-hydroxypropyl)amino)methyl)-6-methoxypyridin-2-yl)phenyl)pyridin-2-yl)-2-(2-((((S)-5-oxopyrrolidin-2-yl)methyl)amino)ethyl)isoindolin-1-one]	3380	6.66
COc1nc(-c2cccc(-c3ccnc(-c4ccc5c6c(n(C)c5c4)CCN(CCO)C6)c3Cl)c2Cl)ccc1CNC[C@@H]1CCC(=O)N1 [Compound 158, (S)-5-((((6-(2-chloro-3-(3-chloro-2-(2-(2-hydroxyethyl)-5-methyl-2,3,4,5-tetrahydro-1H-pyrido[4,3-b]indol-7-yl)pyridine-4-yl)phenyl)-2-methoxypyridin-3-yl)methyl)amino)methyl)pyridine1330ne-2-one]	≥ 10000	0.64
COc1nc(-c2cccc(-c3ccnc(-c4ccc5c6c(n(C)c5c4)CCNC6)c3Cl)c2Cl)ccc1CNC[C@@H]1CCC(=O)N1 [Compound 141, (S)-5-((((6-(2-chloro-3-(3-chloro-2-(5-methyl-2,3,4,5-tetrahydro-1H-pyrido[4,3-b]indol-7-yl)pyridin-4-yl)phenyl)-2-methoxypyridin-3-yl)methyl)amino)methyl)pyrrolidin-2-one]	≥ 10000	0.826
COc1nc(-c2cccc(-c3ccnc(-c4ccc(CN5CC6(CNC(=O)C6)C5)c(F)c4)c3Cl)c2Cl)ccc1CN1CC2(CNC(=O)C2)C1 [Example 284, 2-((6-(2-Chloro-3-(3-chloro-2-(3-fluoro-4-((7-oxo-2,6-diazaspiro[3.4]octan-2-yl)methyl)phenyl)pyridin-4-yl)phenyl)-2-methoxypyridin-3-yl)methyl)-2,6-diazaspiro[3.4]octan-7-one]	62.4	2.81
COc1nc(-c2cccc(-c3ccnc(-c4ccc5c(CN6CC[C@H](C(=O)O)C6)nn(C)c5c4)c3Cl)c2Cl)ccc1CNC[C@@H]1CCC(=O)N1 [Example 309, (S)-1-((6-(3-Chloro-4-(2-chloro-3-(6-methoxy-5-(((((S)-5-oxopyrrolidin-2-yl)methyl)amino)methyl)pyridin-2-yl)phenyl)pyridin-2-yl)-1-methyl-1H-indazol-3-yl)methyl)pyrrolidine-3-carboxylic acid]	75	0.3
COc1cc(-c2nccc(-c3cccc(-c4ccc5c(CN(C)C6CCOCC6)cn(C)c5n4)c3Cl)c2Cl)ccc1CNC1CCOCC1 [Compound 635, N-((6-(2-Chloro-3-(3-chloro-2-(3-methoxy-4-(((tetrahydro-2H-pyran-4-yl)amino)methyl)phenyl)pyridin-4-yl)phenyl)-1-methyl-1H-pyrrolo[2,3-b]pyridin-3-yl)methyl)-N-methyltetrahydro-2H-pyran-4-amine]	237	0.19
COc1nc(-c2cccc(-c3ccnc(-c4ccc5c(c4)S(=O)(=O)CCN(C[C@@H]4CCC(=O)N4)C5)c3Cl)c2Cl)ccc1CNC[C@@H]1CCC(=O)N1 [Example 582, (S)-5-((((6-(2-Chloro-3-(3-chloro-2-(1,1-dioxido-4-(((S)-5-oxopyrrolidin-2-yl)methyl)-2,3,4,5-tetrahydrobenzo[f][1,4]thiazepin-8-yl)pyridin-4-yl)phenyl)-2-methoxypyridin-3-yl)methyl)amino)methyl)pyrrolidin-2-one]	1040	1.58
